# Measured values taken from the NIST ThermoML archive (doi:10.1016/j.tca.2004.12.015).
# Numbers after ± are expanded uncertainties.
# Legend:
# [1] = Molar enthalpy of transition or fusion; settings: Adiabatic calorimetry
# [2] = Adiabatic calorimetry
smiles,measurement,setting,value
N#CCCNc1ccccc1 [3-anilinopropanenitrile],Molar enthalpy of transition or fusion,[1]; Crystal 1,0.2342 ± 0.0012 kcal/mol
same,Molar enthalpy of transition or fusion,[1]; Crystal 2,4.6367 ± 0.0012 kcal/mol
same,Triple point temperature,[2]; Crystal 1,323.5 ± 0.1 K
same,Triple point temperature,[2]; Crystal 2,310.63 ± 0.05 K
